Laboratory results from ChEMBL document CHEMBL5726126, “2-pyridylamino-4-nitrile-piperidinyl orexin receptor antagonists” (2017).

Molecular target: T1, Orexin receptor type 2 (Homo sapiens, UniProt O43614)
T1 sequence (O43614 whole entry): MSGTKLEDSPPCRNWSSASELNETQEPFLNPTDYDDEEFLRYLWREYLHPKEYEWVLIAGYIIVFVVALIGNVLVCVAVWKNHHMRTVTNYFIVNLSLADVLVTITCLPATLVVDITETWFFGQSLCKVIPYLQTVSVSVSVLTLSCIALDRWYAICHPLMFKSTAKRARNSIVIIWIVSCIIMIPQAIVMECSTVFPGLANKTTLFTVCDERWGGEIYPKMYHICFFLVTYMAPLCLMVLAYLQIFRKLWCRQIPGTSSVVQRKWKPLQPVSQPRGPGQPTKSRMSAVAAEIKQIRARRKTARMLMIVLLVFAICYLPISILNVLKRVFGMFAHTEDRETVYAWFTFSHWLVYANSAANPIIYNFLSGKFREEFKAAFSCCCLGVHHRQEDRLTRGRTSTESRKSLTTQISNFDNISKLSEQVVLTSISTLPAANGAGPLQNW
Assay: FLIPR Ca2+ Flux Assay: FLIPR Ca2+ Flux Assay- (Okumura et al., Biochem. Biophys. Res. Comm. 280:976-981, 2001). In a typical experiment the OX1 and OX2 receptor antagonistic activity of the compounds of the present invention was determined in accordance with the following experimental method. For intracellular calcium measurements, Chinese hamster ovary (CHO) cells expressing the rat orexin-1 receptor or the human orexin-2 receptor, are grown in Iscove's modified DMEM containing 2 mM L-glutamine, […], 1% hypoxanthine-thymidine supplement, 100 U/ml penicillin, 100 μg/ml streptomycin and 10% heat-inactivated fetal calf serum (FCS). The cells are seeded at 20,000 cells/well into Becton-Dickinson black 384-well clear bottom sterile plates coated with poly-D-lysine. All reagents were from GIBCO-Invitrogen Corp. The seeded plates are incubated overnight at […]. and 5% CO2. Ala-6,12 human orexin-A as the agonist is prepared as a 1 mM stock solution in 1% bovine serum albumin (BSA) and diluted in assay buffer (HBSS containing 20 mM HEPES, 0.1% BSA and 2.5 mM probenecid, pH7.4) for use in the assay at a final concentration of 70 pM. Test compounds are prepared as 10 mM stock solution in DMSO, then diluted in 384-well plates, first in DMSO, then assay buffer. […]
Assay type: cell-based

CC(=O)N(c1cc(C#N)ccn1)[C@@H]1CC[C@@H](C)N(C(=O)c2ccccc2-n2nccn2)C1
IC50: 1780 nM
